# Patent US8956648B2, “Calciumphosphate-based nanoparticles as carrier-systems for photodynamic therapy” (Biolitec PharmaMarketing Ltd, priority 2008, dated 2015)
# Test system: human colon adenocarcinoma cell line HT29
# Assay: Photodynamic cell test on HT29 tumor cell line (XTT viability after laser irradiation)
# Type: cell-based
# Conditions: HT29 cells, 24 h incubation, 652 nm diode laser 50 J cm^−2, XTT assay
# Procedure: The photosensitizing activity was determined in the human colon adenocarcinoma cell line HT29. The HT29 cell lines were grown in DMEM (cc-pro GmbH) supplemented with 10% heat-inactivated fetal calf serum (FCS, cc-pro GmbH), 1% penicillin (10000 IU) and streptomycin (10,000 μg ml^−1, cc-pro GmbH). Cells were kept as a monolayer culture in a humidified incubator (5% CO2 in air at 37° C.).
# A stock solution of the nanoparticle formulation was kept in the dark at 4° C. Further dilution was performed in RPMI 1640 medium without phenol red supplemented with 10% FCS to reach a final photosensitizer concentration of 2 or 10 μM, respectively.
# 2-10^4 cells ml^−1 were seeded in micro plates ([…]). Cells were incubated with fresh medium (RPMI without phenol red) containing 10% FCS with 2 or 10 μM of the photosensitizer for 24 h before light exposure. Before photosensitization, cells were washed, incubated with RPMI without phenol red and 10% FCS, then irradiated at room temperature with a 652 nm diode laser (Ceralas PDT 652, biolitec AG) at a fixed fluence rate of 100 mW cm^−2 (50 J cm^−2). […]
# The cell viability was assessed by the XTT assay. […]
# The absorbance of the samples was measured with a spectrophotometer (Tecan Infinite 200, Tecan Group Ltd.) at a wavelength of 490 nm. In order to measure reference absorbance (to measure non-specific readings) a wavelength of 630-690 nm was used. […]
smiles,measurement,value
"O=P(O)(O)Oc1ccc(-c2c3nc(c(-c4ccc(OP(=O)(O)O)cc4)c4ccc([nH]4)c(-c4ccc(OP(=O)(O)O)cc4)c4nc(c(-c5ccc(OP(=O)(O)O)cc5)c5ccc2[nH]5)C=C4)C=C3)cc1 [pTPPP, 5,10,15,20-tetrakis(4-phosphonooxyphenyl)porphine]",photodynamic activity,no photodynamic activity
